Data: patent publication US5019394A, “Liposome composition and its production” (Takeda Chemical Industries, Ltd., priority 1987, dated 1991)
Where a name gives a salt, the structure may show the parent alone.

Assay: dissolution of SMT in aqueous 6-CF solution
Assay type: physicochemical
Settings: 30 mg in 10 ml, pH 7, room temperature
Experimental: 270 mg of DPPC and 30 mg of DSPC were dissolved in 70 ml of 1:1 mixture of chloroform and isopropylether in a 1--1 beaker. To 10 ml of an aqueous solution of 6-carboxyfluorescein (6-CF), pH 7, which had been prepared beforehand so that the osmotic pressure might be the same as that of the physiological saline, 30 mg of sodium stearoylmethyltaurine (SMT) was added at room temperature. […] Then this solution was added to the solution of the phospholipid in an organic solvent, and emulsified by a probe type sonicator (Ohtake, Japan), to give a w/o type emulsion. Sonication at 50 watt for 30 seconds was repeated 10 times. This emulsion was charged to a rotary evaporator to evaporate off the organic solvent at 60° C. under reduced pressure, to give REV. The pressure in the evaporator was reduced greatly in the initial stage, but then adjusted in the course of evaporation of the organic solvent to prevent bumping. A small amount of the organic solvent remained in REV was further evaporated off by blowing nitrogen gas. […] The entrapment ratio of 6CF in this liposome composition was 33.2% as determined by quantification of 6-Cf entrapped in liposome (Note 1).
For `CCCCCCCCCCCCCCCCCC(=O)N(C)CCS(=O)(=O)O.[Na]`, the “solubility of SMT in aqueous 6-CF solution” value was “almost insoluble”.

Assay: Krafft point of anionic surfactants
Assay type: physicochemical
Settings: not given
Compound `CCCCCCCCCCCCCCCCCC(=O)N(C)CCS(=O)(=O)O.[Na]` has a Krafft point of 58 °C. For `CCCCCCCCCCCCS(=O)(=O)[O-].[Na+]` [sodium dodecanesulfonate], the Krafft point was 38 °C. `CCCCCCCCCCCCOS(=O)(=O)[O-].[Na+]` [sodium dodecyl sulfate, reference compound] showed a Krafft point of 9 °C. In the case of `CCCCCCCCCCCCc1ccc(S(=O)(=O)O)cc1` [sodium dodecylbenzenesulfonate], the Krafft point is reported as 40 °C. For `CCCCCCCCCCCCCCCCCS(=O)(=O)[O-].[Na+]` [sodium heptadecanesulfonate], the Krafft point was 62 °C. In the case of `CCCCCCCCCCCCCCCCS(=O)(=O)[O-].[Na+]` [sodium hexadecanesulfonate], the Krafft point is reported as 57 °C. Compound `CCCCCCCCCCCCCCCCOS(=O)(=O)[O-].[Na+]` [sodium hexadecyl sulfate] has a Krafft point of 43 °C. Compound `CCCCCCCCCCCCCCCCc1ccc(S(=O)(=O)O)cc1` [sodium hexadecylbenzenesulfonate] has a Krafft point of 46 °C. For `CCCCCCCCCCCCCCCCCCS(=O)(=O)[O-].[Na+]` [sodium octadecanesulfonate], the Krafft point was 70 °C. Work on `CCCCCCCCCCCCCCCCCCOCCOCCOS(=O)(=O)O` [sodium octadecyl diether sulfate ester] yielded a Krafft point of 40 °C. For `CCCCCCCCCCCCCCCCCCOS(=O)(=O)[O-].[Na+]` [sodium octadecyl sulfate], the Krafft point was 58 °C. `CCCCCCCCCCCCCCCCCCc1ccc(S(=O)(=O)O)cc1` [sodium octadecylbenzenesulfonate] showed a Krafft point of 56 °C. For `CCCCCCCCCCCCCCCCCCOCCOS(=O)(=O)O` [sodium octadecylether sulfate ester], the Krafft point was 46 °C. For `CCCCCCCCCCCCCCCC(=O)NCCOS(=O)(=O)O` [sodium palmitoyl ethanolamide sulfate ester], the Krafft point was 42 °C. In the case of `CCCCCCCCCCCCCCCC(=O)NCCCOS(=O)(=O)O` [sodium palmitoyl propanolamide sulfate ester], the Krafft point is reported as 47 °C. `CCCCCCCCCCCCCCCC(=O)N(C)CCS(=O)(=O)O.[Na]` [sodium palmitoylmethyltaurine] gave a Krafft point of 43 °C. For `CCCCCCCCCCCCCCCC(=O)NCCS(=O)(=O)O.[Na]` [sodium palmitoyltaurine], the Krafft point was 43 °C. Work on `CCCCCCCCCCCCCCCS(=O)(=O)[O-].[Na+]` [sodium pentadecanesulfonate] yielded a Krafft point of 48 °C. With `CCCCCCCCCCCCCCCCCC(=O)NCCOS(=O)(=O)O` [sodium stearoyl ethanolamide sulfate ester] the Krafft point was 53 °C. `CCCCCCCCCCCCCCCCCC(=O)NCCCOS(=O)(=O)O` [sodium stearoyl propanolamide sulfate ester] gave a Krafft point of 57 °C. Compound `CCCCCCCCCCCCCCCCCC(=O)NCCS(=O)(=O)O.[Na]` [sodium stearoyltaurine] has a Krafft point of 58 °C. `CCCCCCCCCCCCCCS(=O)(=O)[O-].[Na+]` [sodium tetradecanesulfonate] showed a Krafft point of 48 °C. `CCCCCCCCCCCCCCc1ccc(S(=O)(=O)O)cc1` [sodium tetradecylbenzenesulfonate] showed a Krafft point of 43 °C. With sodium hexadecyl disulfate ester the Krafft point was 39 °C. sodium octadecyl disulfate ester showed a Krafft point of 45 °C.

Assay: observed phase transition temperature of phospholipids
Assay type: physicochemical
Settings: phospholipid
With `CCCCCCCCCCCCCC(=O)OC[C@H](COP(=O)([O-])OCC[N+](C)(C)C)OC(=O)CCCCCCCCCCCCC` [DMPC, dimyristoylphosphatidyl choline] the “observed phase transition temperature” value was 23.9 °C. For `CCCCCCCCCCCCCC(=O)OCC(COP(=O)(O)OCCN)OC(=O)CCCCCCCCCCCCC` (centres unmarked) [DMPE, dimyristoylphosphatidyl ethanolamine], the “observed phase transition temperature” value was 50 °C. In the case of `CCCCCCCCCCCCCC(=O)OCC(COP(=O)(O)OCC(O)CO)OC(=O)CCCCCCCCCCCCC` (centres unmarked) [DMPG, dimyristoylphosphatidyl glycrine], the “observed phase transition temperature” value is reported as 23 °C. With `CCCCCCCCCCCCCC(=O)OCC(COP(=O)(O)OCC(N)C(=O)O)OC(=O)CCCCCCCCCCCCC` (centres unmarked) [DMPS, dimyristoylphosphatidyl serine] the “observed phase transition temperature” value was 38 °C. In the case of `CCCCCCCCCCCCCCCC(=O)OC[C@H](COP(=O)([O-])OCC[N+](C)(C)C)OC(=O)CCCCCCCCCCCCCCC` [DPPC, dipalmitoylphosphatidyl choline], the “observed phase transition temperature” value is reported as 41.4 °C. With `CCCCCCCCCCCCCCCC(=O)OCC(COP(=O)(O)OCCN)OC(=O)CCCCCCCCCCCCCCC` (centres unmarked) [DPPE, dipalmitoylphosphatidyl ethanolamine] the “observed phase transition temperature” value was 60 °C. For `CCCCCCCCCCCCCCCC(=O)OCC(COP(=O)(O)OCC(O)CO)OC(=O)CCCCCCCCCCCCCCC` (centres unmarked) [DPPG, dipalmitoylphosphatidyl glycerine], the “observed phase transition temperature” value was 41 °C. For `CCCCCCCCCCCCCCCC(=O)OCC(COP(=O)(O)OCC(N)C(=O)O)OC(=O)CCCCCCCCCCCCCCC` (centres unmarked) [DPPS, dipalmitoylphosphatidyl serine], the “observed phase transition temperature” value was 51 °C. For `CCCCCCCCCCCCCCCCCC(=O)OCC(COP(=O)([O-])OCC[N+](C)(C)C)OC(=O)CCCCCCCCCCCCCCCCC` (centres unmarked) [DSPC, distearoylphosphatidyl choline], the “observed phase transition temperature” value was 54.9 °C. With `CCCCCCCCCCCCCCCCCC(=O)OCC(COP(=O)(O)OCCN)OC(=O)CCCCCCCCCCCCCCCCC` (centres unmarked) [DSPE, distearoylphosphatidyl ethanolamine] the “observed phase transition temperature” value was “above 60 °C”. In the case of `CCCCCCCCCCCCCCCCCC(=O)OCC(COP(=O)(O)OCC(O)CO)OC(=O)CCCCCCCCCCCCCCCCC` (centres unmarked) [DSPG, distearoylphosphatidyl glycerine], the “observed phase transition temperature” value is reported as 55 °C. For `CCCCCCCCCCCCCCCCCC(=O)OCC(COP(=O)(O)OCC(N)C(=O)O)OC(=O)CCCCCCCCCCCCCCCCC` (centres unmarked) [DSPS, distearoylphosphatidyl serine], the “observed phase transition temperature” value was at least 50 °C. In the case of `CCCCCCCCCCCCCCCC(=O)OC(COC(=O)CCCCCCCCCCCCC)COP(=O)([O-])OCC[N+](C)(C)C` (centres unmarked) [MPPC, myristoylpalmitoylphosphatidyl choline], the “observed phase transition temperature” value is reported as 35.3 °C. With `CCCCCCCCCCCCCCCC(=O)OCC(COP(=O)([O-])OCC[N+](C)(C)C)OC(=O)CCCCCCCCCCCCC` (centres unmarked) [PMPC, palmitoylmyristoylphosphatidyl choline] the “observed phase transition temperature” value was 27.2 °C. In the case of `CCCCCCCCCCCCCCCCCC(=O)OC(COC(=O)CCCCCCCCCCCCCCC)COP(=O)([O-])OCC[N+](C)(C)C` (centres unmarked) [PSPC, palmitoylstearoylphosphatidyl choline], the “observed phase transition temperature” value is reported as 47.4 °C. With `CCCCCCCCCCCCCCCCCC(=O)OCC(COP(=O)([O-])OCC[N+](C)(C)C)OC(=O)CCCCCCCCCCCCCCC` (centres unmarked) [SPPC, stearoylpalmitoylphosphatidyl choline] the “observed phase transition temperature” value was 44.0 °C. In the case of dipalmitoyl sphingomyelin [DPSM], the “observed phase transition temperature” value is reported as 41 °C. In the case of distearoyl sphingomyelin [DSSM], the “observed phase transition temperature” value is reported as 57 °C.
